Data from patent US10703748B2, “Diazanaphthalen-3-yl carboxamides and preparation and use thereof” (Samumed, LLC, priority 2017, dated 2020).

What was measured:
GSK3β kinase = GSK3β kinase (Homo sapiens, UniProt P49841); assay: GSK3β kinase activity (Ser/Thr 09 peptide Z-lyte FRET assay); type: biochemical; details: recombinant kinase, 46 μM ATP, one hour at room temperature; read-out: EC50
[1] = tested on: Wnt-responsive Sp5-Luc reporter in SW480 colon carcinoma cells; assay: Screening assay for Wnt activity (Sp5-Luc reporter gene assay); details: for inhibition at 10 µM: SW480, read-out: percent inhibition at 10 μM
[2] = tested on: α-smooth muscle actin (aSMA) positive LL29 cells; assay: Inhibition of the fibrotic process: αSMA staining in TGF-β1 treated LL29 fibroblasts from IPF patients; details: for inhibition at 10 µM: read-out: percentage in parentheses after EC50 >10
DYRK1A kinase = DYRK1A kinase (Homo sapiens, UniProt Q13627); assay: DYRK1A kinase activity (Ser/Thr 18 peptide Z-lyte FRET assay); type: biochemical; details: recombinant DYRK1A, 30 μM ATP, one hour at room temperature;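 also: kinase activity read as coumarin/fluorescein emission ratio after development step, with unphosphorylated and phosphorylated peptide forms setting 0% and 100% controls, values from dose-response curves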
[3] = tested on: SW480 colon carcinoma cells; assay: Cell viability assay (CellTiter-Glo); details: for inhibition at 10 µM: SW480, read-out: percent inhibition at 10 μM
IL-6 = IL-6 inhibition in LPS-stimulated human peripheral blood mononuclear cells (HTRF); details: for inhibition at 10 µM: read-out: percentage in parentheses after EC50 >10
Method: Each compound was dissolved in DMSO (Catalog # D8418-100 ml, Sigma-Aldrich, St. Louis, Mo.) as a 10 mM stock and used to prepare compound source plates. […] After 22 hour incubation, a mixture of anti-IL6 XL665 and anti-IL-6 Cryptate diluted in reconstitution buffer (Catalog #62IL6PEC, Cisbio Inc., Bedford, Mass.) was added to each well. […] All samples were processed in duplicate. […] EC50 was determined using software generated by Dotmatics Limited (Windhill Bishops Stortford Herts, UK) using the Levenberg-Marquardt 4 parameter fitting procedure with finite different gradients.

GSK3β kinase, sequence (P49841 whole entry): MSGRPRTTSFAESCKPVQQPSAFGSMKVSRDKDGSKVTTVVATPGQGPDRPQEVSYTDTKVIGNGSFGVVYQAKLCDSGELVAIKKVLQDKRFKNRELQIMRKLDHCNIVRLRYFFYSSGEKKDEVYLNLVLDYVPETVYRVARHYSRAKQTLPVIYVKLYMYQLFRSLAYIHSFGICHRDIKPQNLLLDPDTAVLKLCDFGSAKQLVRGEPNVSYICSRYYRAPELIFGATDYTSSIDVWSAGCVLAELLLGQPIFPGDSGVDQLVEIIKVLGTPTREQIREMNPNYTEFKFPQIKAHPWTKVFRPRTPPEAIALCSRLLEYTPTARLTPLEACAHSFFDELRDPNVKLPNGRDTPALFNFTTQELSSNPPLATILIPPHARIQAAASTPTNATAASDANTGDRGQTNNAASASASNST

| Compound | EC50 (GSK3β kinase) [µM] | EC50 ([1]; Homo sapiens, SW480) [µM] | EC50 ([2]; Homo sapiens, Fibroblast, 96 h) [µM] | EC50 (DYRK1A kinase) [µM] | EC50 ([3]; Homo sapiens, SW480, 96 h) [µM] | EC50 (IL-6; Homo sapiens, PBMC, 22 h) [µM] | inhibition at 10 µM ([1]; Homo sapiens) [%] | inhibition at 10 µM (IL-6; Homo sapiens, PBMC) [%] | EC50 ([1]; SW480 Sp5-Luc reporter cells, 36 to 48 hours) [µM] | EC50 ([2]; LL29 fibroblasts from IPF patients, TGF-β1 20 ng/mL, 4 days, curves from 10 μM to 0.94 nM) [µM] | percentage in parentheses after EC50 >10 ([2]; LL29 fibroblasts, TGF-β1, given beside >10 μM, meaning not given) [%] | EC50 ([3]; SW480 cells, four days, CellTiter-Glo) [µM] | percent inhibition at 10 μM ([3]; at 10 μM, given for EC50 of >10 μM, SW480 cell viability) [%] | EC50 (IL-6; huPBMCs, LPS 50 ng/mL, 22 hours, curves starting from 10 μM) [µM] | percentage in parentheses after EC50 >10 (IL-6; huPBMCs, LPS, given beside >10 μM, meaning not given) [%] | inhibition at 10 µM ([2]; Homo sapiens, Fibroblast) [%] | inhibition at 10 µM ([3]; Homo sapiens) [%] |
| --- | --- | --- | --- | --- | --- | --- | --- | --- | --- | --- | --- | --- | --- | --- | --- | --- | --- |
| Cn1cc(-c2ccc3cnc(NC(=O)c4coc(C5CCNCC5)n4)cc3n2)cn1 [Compound 241, N-(2-(1-Methyl-1H-pyrazol-4-yl)-1,6-naphthyridin-7-yl)-2-(piperidin-4-yl) oxazole-4-carboxamide] | 0.166 | 0.388 | 1.58 | 0.067 | 0.466 | 3.72 | – | – | – | – | – | – | – | – | – | – | – |
| CN1CCC(c2nc(C(=O)Nc3cc4nc(-c5cnn(C)c5)ccc4cn3)co2)CC1 [Compound 242, N-(2-(1-Methyl-1H-pyrazol-4-yl)-1,6-naphthyridin-7-yl)-2-(1-methylpiperidin-4-yl)oxazole-4-carboxamide] | 6.85 | 0.268 | 1.42 | 0.06 | 0.541 | 3.62 | – | – | – | – | – | – | – | – | – | – | – |
| CCN(CC)CC(=O)Nc1cc2nc(-c3cnn(C)c3CN3CCCCC3)ccc2cn1 [Compound 283, 2-(Diethylamino)-N-(2-(1-methyl-5-(piperidin-1-ylmethyl)-1H-pyrazol-4-yl)-1,6-naphthyridin-7-yl)acetamide] | 1.18 | > 10 | 3.91 | 0.698 | 4.24 | > 10 | 43.6 | 7.4 | – | – | – | – | – | – | – | – | – |
| Cn1cc(-c2ccc3cnc(NC(=O)C(C)(C)F)cc3n2)nn1 [Compound 333] | – | – | – | – | – | – | – | – | 0.504 | > 10 | 25.2 | > 10 | 35.6 | > 10 | 5.4 | – | – |
| Cn1cc(-c2ccc3cnc(NC(=O)C4CCN(CC5(C(F)(F)F)CC5)CC4)cc3n2)nn1 [Compound 347, N-(2-(1-Methyl-1H-1,2,3-triazol-4-yl)-1,6-naphthyridin-7-yl)-1-((1-(trifluoromethyl)cyclopropyl)methyl)piperidine-4-carboxamide] | > 10 | > 10 | > 10 | 9.99 | > 10 | > 10 | 28.7 | 4 | – | – | – | – | – | – | – | 20.7 | 10.7 |
| CNC(=O)c1ccc(C(=O)Nc2cc3nc(-c4cn(C)nn4)ccc3cn2)cn1 [Compound 372, N^2-Methyl-N^5-(2-(1-methyl-1H-1,2,3-triazol-4-yl)-1,6-naphthyridin-7-yl) pyridine-2,5-dicarboxamide] | 0.255 | > 10 | 3.64 | 0.067 | > 10 | > 10 | 48.7 | 0 | – | – | – | – | – | – | – | – | 23.2 |
| Cn1cncc1-c1ccc2cnc(NC(=O)C3CCC(F)(F)CC3)cc2n1 [Compound 400, 4,4-Difluoro-N-(2-(1-methyl-1H-imidazol-5-yl)-1,6-naphthyridin-7-yl) cyclohexane-1-carboxamide] | 0.036 | 1.35 | 1.48 | 0.121 | 2.37 | 3.66 | – | – | – | – | – | – | – | – | – | – | – |
| Cn1cncc1-c1ccc2cnc(NC(=O)c3ccc(F)cc3)cc2n1 [Compound 448, 4-Fluoro-N-(2-(1-methyl-1H-imidazol-5-yl)-1,6-naphthyridin-7-yl)benzamide] | > 10 | > 10 | > 10 | > 10 | > 10 | 5.13 | 2.8 | – | – | – | – | – | – | – | – | 23 | 16.2 |
| CN1CCC(Oc2cccc(C(=O)Nc3cc4nc(-c5cnco5)ccc4cn3)c2)CC1 [Compound 591, 3-((1-Methylpiperidin-4-yl)oxy)-N-(2-(oxazol-5-yl)-1,6-naphthyridin-7-yl)benzamide] | > 10 | 6.06 | > 10 | > 10 | 3.25 | > 10 | – | 0 | – | – | – | – | – | – | – | 13.3 | – |
| Cc1ncc(-c2ccc3cnc(NC(=O)N4CCC(N(C)C)CC4)cc3n2)s1 [Compound 662, 4-(Dimethylamino)-N-(2-(2-methylthiazol-5-yl)-1,6-naphthyridin-7-yl) piperidine-1-carboxamide] | > 10 | > 10 | 7.65 | > 10 | > 10 | > 10 | 26 | 10.5 | – | – | – | – | – | – | – | – | 17.3 |
| CN1CCC(C(=O)Nc2cc3nc(-c4cnsc4)ccc3cn2)CC1 [Compound 692, N-(2-(Isothiazol-4-yl)-1,6-naphthyridin-7-yl)-1-methylpiperidine-4-carboxamide] | > 10 | > 10 | > 10 | 1.01 | > 10 | 6.73 | 38.6 | – | – | – | – | – | – | – | – | 3.8 | 28.7 |
| CC(C)Nc1cncc(-c2ccc3cnc(NC(=O)c4cn(C5CCNCC5)nn4)cc3n2)n1 [Compound 862, N-(2-(6-(isopropylamino)pyrazin-2-yl)-1,6-naphthyridin-7-yl)-1-(piperidin-4-yl)-1H-1,2,3-triazole-4-carboxamide] | > 10 | 3.97 | 5.03 | 0.203 | 4.38 | > 10 | – | 5.6 | – | – | – | – | – | – | – | – | – |
| CC(C)Nc1cncc(-c2ccc3cnc(NC(=O)c4cn(C5CCN(CCF)CC5)nn4)cc3n2)n1 [Compound 863, 1-(1-(2-fluoroethyl)piperidin-4-yl)-N-(2-(6-(isopropylamino)pyrazin-2-yl)-1,6-naphthyridin-7-yl)-1H-1,2,3-triazole-4-carboxamide] | > 10 | > 10 | > 10 | 0.388 | > 10 | > 10 | 29.7 | 7 | – | – | – | – | – | – | – | 41 | 27.5 |
| O=C(Nc1cc2nc(-c3cncc(OCC4CNC4)n3)ccc2cn1)c1ccc(F)cc1 [Compound 892, N-(2-(6-(Azetidin-3-ylmethoxy)pyrazin-2-yl)-1,6-naphthyridin-7-yl)-4-fluorobenzamide] | > 10 | 4.28 | 3.98 | 0.142 | 2.06 | > 10 | – | 2.5 | – | – | – | – | – | – | – | – | – |
| Cn1cc(-c2ccc3cnc(NC(=O)[C@H]4CCCN4)nc3c2)cn1 [Compound 969, (R)—N-(7-(1-Methyl-1H-pyrazol-4-yl)quinazolin-2-yl)pyrrolidine-2-carboxamide] | > 10 | > 10 | > 10 | > 10 | > 10 | > 10 | 4.2 | 4.1 | – | – | – | – | – | – | – | 40.2 | 16.3 |
| CC(C(=O)Nc1ncc2ccc(-c3cnn(C)c3)cc2n1)N1CCCCC1 (stereo not shown) [Compound 978, N-(7-(1-Methyl-1H-pyrazol-4-yl)quinazolin-2-yl)-2-(piperidin-1-yl)propanamide] | 0.087 | > 10 | 2.73 | 0.171 | > 10 | > 10 | 37.2 | 6.9 | – | – | – | – | – | – | – | – | 50 |
